One assay concerns CMV IgG-positive sera. As to the kind of experiment: ELISA on peptide-coated microtiter plates with HCMV-positive human sera (localization of epitopes). The format is binding. Particulars: plates coated with 2.5 μg peptide per ml, serum 1:2; for Reactivity (individual reactivities of particularly reactive peptides with the assayed group of CMV IgG-positive sera): Table 3; for Reactivity (individual reactivities of the synthetic pXP1 segments with the assayed group of CMV IgG-positive sera): Table 2. Here is the method: A microtiter plate with 96 wells was coated with a synthesized peptide. To do this, a solution of 2.5 μg of peptide per ml of carbonate buffer was made up and introduced in 100 μl portions into the wells for the coating. The peptides were adsorbed onto the surfaces at 4° C. overnight and, after removal of the peptide solution, the wells were washed several times with washing buffer (50 mM Tris, pH 7.2, 10 mM EDTA, 0.2% Tween 20). Then individual human serum samples in a 1:2 dilution were introduced and incubated at 37° C. for 1 hour. After another washing step, the conjugate antibody specific for human IgG antibodies or human IgM antibodies and labeled with peroxidase was added and the mixture was incubated at room temperature for 0.5 hour. The reaction was subsequently stopped by adding 0.5 M sulfuric acid and extinction of the individual samples was measured at a wavelength of 450/650 nm in a photometer.
To test the immunogenicity, peptides of various length from the complete amino-acid sequence region from 718 to 880 of the HCMV protein pp150 (Tab. 2 and 3) were synthesized as described in Example 1. Subsequently, as in Example 2, the microtiter plates were coated with the synthesized peptides, and the immunological reactivity was assayed. […] The three immunologically reactive peptides have the following sequences: […]
(ELISA stands for enzyme-linked immunosorbent assay.)

In assay [1] the test system is monoclonal antibody 87-55/02. Kind of assay: Reaction of monoclonal antibody 87-55/02 with peptide-coated ELISA plate. The format is binding. Particulars: immunoblot and ELISA reactivity. From the text: It was concluded from the method for selecting the monoclonal antibody that the identified epitope must have a very important structure which is not even destroyed by denaturation of the complete protein. This monoclonal antibody correspondingly reacts both with the synthesized peptide 2.7 (SEQ ID NO:26) and with the recombinant protein XP1 (SEQ ID NO:33) and the pp150 protein of HCMV.
(In general: In western blotting, separated proteins are transferred to a membrane and probed.)

As for “ala tyr lys phe glu gln pro thr leu thr phe gly ala gly val asn val pro ala gly ala gly ala ala ile leu thr pro thr pro val asn pro ser thr ala pro ala pro ala pro (AYKFGQPTLTFGAGVNVPAGAGAAILTPTPVNPSTAPAPAP) [Peptide 1.13]”, the “Reactivity (individual reactivities of particularly reactive peptides with the assayed group of CMV IgG-positive sera)” value in the assay with CMV IgG-positive sera is 90%.
Same read-out and setting: in the case of “pro ala gly ala gly ala ala ile leu thr pro thr pro val asn pro ser thr ala pro ala pro ala pro thr pro thr phe ala gly thr (PAGAGAAILTPTPVNPSTAPAPAPTPTFAGT) [Peptide 1.10]” it was 80%.
As to “pro arg ala ala val thr gln thr ala ser arg asp ala ala (PRAAVTQTASRDAA) [Peptide 3.1]”, in the assay on CMV IgG-positive sera, the “Reactivity (individual reactivities of the synthetic pXP1 segments with the assayed group of CMV IgG-positive sera)” value worked out at 60% and the “Reactivity (individual reactivities of particularly reactive peptides with the assayed group of CMV IgG-positive sera)” value was found to be 60%.
As for “phe glu gln pro thr leu thr phe gly ala gly val asn val pro ala gly ala gly ala ala ile leu thr pro thr pro val asn pro ser thr ala pro ala pro ala (FEQPTLTFGAGVNVPAGAGAAILTPTPVNPSTAPAPA) [Peptide 1.4]”, in the assay on CMV IgG-positive sera, the “Reactivity (individual reactivities of particularly reactive peptides with the assayed group of CMV IgG-positive sera)” value stood at 90%.
On to “arg ala trp ala leu lys asn pro his leu ala tyr asn pro phe (RAWALKNPHLAYNPF) [Peptide 2.10]”, for which, in the assay with CMV IgG-positive sera, the “Reactivity (individual reactivities of the synthetic pXP1 segments with the assayed group of CMV IgG-positive sera)” value was determined as 80% and the “Reactivity (individual reactivities of particularly reactive peptides with the assayed group of CMV IgG-positive sera)” value is on record as 80%.
Take “ala ser arg asp ala ala asp glu val trp ala leu arg asp gln thr ala (ASRDAADEVWALRDQTA) [Peptide 3.2]”: in the assay with CMV IgG-positive sera, the “Reactivity (individual reactivities of the synthetic pXP1 segments with the assayed group of CMV IgG-positive sera)” value stood at 80% and the “Reactivity (individual reactivities of particularly reactive peptides with the assayed group of CMV IgG-positive sera)” value is listed as 80%.

B1: XP1: recombinant protein section, amino acid 718-880 of HCMV protein pp150 (protein)
chain: DPRFTDTLVDITDTETSAKPPVTTAYKFEQPTLTFGAGVNVPAGAGAAILTPTPVNPSTAPAPAPTPTFAGTQTPVNGNSPWAPTAPLPGDMNPANWPRERAWALKNPHLAYNPFRMPTTSTASQNTVSTTPRRPSTPRAAVTQTASRDAADEVWALRDQTA
B1: the “reaction with monoclonal antibody 87-55/02” value in assay [1] is given as “reacts”.

B2: pp150: HCMV protein pp150 (protein, UniProt P08318 1-1048, looked up)
Large structural …: MSLQFIGLQRRDVVALVNFLRHLTQKPDVDLEAHPKILKKCGEKRLHRRTVLFNELMLWLGYYRELRFHNPDLSSVLEEFEVRCVAVARRGYTYPFGDRGKARDHLAVLDRTEFDTDVRHDAEIVERALVSAVILAKMSVRETLVTAIGQTEPIAFVHLKDTEVQRIEENLEGVRRNMFCVKPLDLNLDRHANTALVNAVNKLVYTGRLIMNVRRSWEELERKCLARIQERCKLLVKELRMCLSFDSNYCRNILKHAVENGDSADTLLELLIEDFDIYVDSFPQSAHTFLGARSPSLEFDDDANLLSLGGGSAFSSVPKKHVPTQPLDGWSWIASPWKGHKPFRFEAHGSLAPAAEAHAARSAAVGYYDEEEKRRERQKRVDDEVVQREKQQLKAWEERQQNLQQRQQQPPPPARKPSASRRLFGSSADEDDDDDDDEKNIFTPIKKPGTSGKGAASGGGVSSIFSGLLSSGSQKPTSGPLNIPQQQQRHAAFSLVSPQVTKASPGRVRRDSAWDVRPLTETRGDLFSGDEDSDSSDGYPPNRQDPRFTDTLVDITDTETSAKPPVTTAYKFEQPTLTFGAGVNVPAGAGAAILTPTPVNPSTAPAPAPTPTFAGTQTPVNGNSPWAPTAPLPGDMNPANWPRERAWALKNPHLAYNPFRMPTTSTASQNTVSTTPRRPSTPRAAVTQTASRDAADEVWALRDQTAESPVEDSEEEDDDSSDTGSVVSLGHTTPSSDYNNDVISPPSQTPEQSTPSRIRKAKLSSPMTTTSTSQKPVLGKRVATPHASARAQTVTSTPVQGRLEKQVSGTPSTVPATLLQPQPASSKTTSSRNVTSGAGTSSASSARQPSASASVLSPTEDDVVSPATSPLSMLSSASPSPAKSAPPSPVKGRGSRVGVPSLKPTLGGKAVVGRPPSVPVSGSAPGRLSGSSRAASTTPTYPAVTTVYPPSSTAKSSVSNAPPVASPSILKPGASAALQSRRSTGTAAVGSPVKSTTGMKTVAFDLSSPQKSGTGPQPGSAGMGGAKTPSDAVQNILQKIEKIKNTEE
Take B2: the “reaction with monoclonal antibody 87-55/02” value in assay [1] is on record as “reacts”.
